Patent publication US20100119599A1 (ARCHER PHARMACEUTICALS, INC., priority 2006, published 2010)

What was measured:
[1] = test system: Aβ1-42; assay: Measurement of Aβ1-42 in culture medium of 7W WT APP751 CHO cells by ELISA; assay type: cell-based, Chinese hamster; details: for activity at 5 µM: Cricetulus griseus, Table 1, 5 μM test compound, CHO cells stably transfected with human APP751, culture medium, ELISA, control DMSO, 0 = no detectable amount, read-out: Aβ1-42 (% of control); for Aβ1-42 (% of control): CHO cells that overexpress APP751, zero = below the detection limit of the assay
[2] = test system: Aβ1-40; assay: Measurement of Aβ1-40 in culture medium of 7W WT APP751 CHO cells by ELISA; assay type: cell-based, Chinese hamster; details: for activity at 5 µM: Cricetulus griseus, Table 1, 5 μM test compound, CHO cells stably transfected with human APP751, culture medium, ELISA, control DMSO, 0 = no detectable amount; for Aβ1-40 (% of control): CHO cells that overexpress APP751, zero = below the detection limit of the assay
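Further: 5 µM test compound but RI-coded compounds at 10 µM for 24 hours.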

| Compound | activity at 5 µM [1] | activity at 5 µM [2] | Aβ1-42 (% of control) [1] | Aβ1-40 (% of control) [2] |
| --- | --- | --- | --- | --- |
| COc1ccc(C2CC(=O)C3=C(C2)NC(C)=C(C(=O)OCc2ccccc2)C3c2cc(OC)c(OC)c(OC)c2)cc1 (stereo not shown) [ST017244, phenylmethyl 7-(4-methoxyphenyl)-2-methyl-5-oxo-4-(3,4,5-trimethoxyphenyl)-1,4,6,7,8-pentahydroquinoline-3-carboxylate] | 24.4% | 65.4% | – | – |
| CC1=C(C(=O)OCCc2ccccc2)C(c2ccc(C)o2)C2=C(CC(C)(C)CC2=O)N1 (stereo not shown) [ST052398, 2-phenylethyl 2,7,7-trimethyl-4-(5-methyl(2-furyl))-5-oxo-1,4,6,7,8-pentahydroquinoline-3-carboxylate] | 55.6% | 44.3% | – | – |
| COc1cccc(C2C(C(=O)OC(C)C)=C(C)NC3=C2C(=O)CC(c2ccc(Cl)cc2)C3)c1OC (stereo not shown) [ST017324, methylethyl 4-(2,3-dimethoxyphenyl)-7-(4-chlorophenyl)-2-methyl-5-oxo-1,4,6,7,8-pentahydroquinoline-3-carboxylate] | 99.2% | 30.2% | – | – |
| CCCCCOC(=O)C1=C(C)NC2=C(C(=O)CC(C)(C)C2)C1c1ccc(OC)cc1 (stereo not shown) [ST216606, pentyl 4-(4-methoxyphenyl)-2,7,7-trimethyl-5-oxo-1,4,6,7,8-pentahydroquinoline-3-carboxylate] | 9.56% | 1.4% | – | – |
| Cc1ccc(/C=c2/sc3n(c2=O)C(N)=C(C#N)C(c2ccc(C)cc2)C=3C#N)cc1 (stereo not shown) [ST215709, 5-amino-7-(4-methylphenyl)-2-[(4-methylphenyl)methylene]-3-oxo-4,7-dihydro-1,3-thiazolidino[3,2-a]pyridine-6,8-dicarbonitrile] | – | – | 78.43 % of control | 55.91 % of control |
| CCc1cccc(NC(=O)CSC2=C(C#N)C(c3ccc(C)s3)C(C(=O)Nc3ccccc3)=C(C)N2)c1 (stereo not shown) [RI_78] | – | – | 88.1 % of control | 77.32 % of control |
| CCCOCCOC(=O)C1=C(C)NC2=C(C(=O)CC(C)(C)C2)C1c1ccccc1Cl (stereo not shown) [ST052454, 2-propoxyethyl 4-(2-chlorophenyl)-2,7,7-trimethyl-5-oxo-1,4,6,7,8-pentahydroquinoline-3-carboxylate] | 33.2% | 25.6% | – | – |
| COC(=O)C1=C(C)NC2=C(C(=O)CCC2)C1c1cccc(OC)c1OC (stereo not shown) [ST013140, methyl 4-(2,3-dimethoxyphenyl)-2-methyl-5-oxo-1,4,6,7,8-pentahydroquinoline-3-carboxylate] | 51.1% | 96% | – | – |
| CCSCCOC(=O)C1=C(C)NC2=C(C(=O)CCC2)C1c1ccccc1Br (stereo not shown) [ST017199, 2-ethylthioethyl 4-(2-bromophenyl)-2-methyl-5-oxo-1,4,6,7,8-pentahydroquinoline-3-carboxylate] | 100% | 47.9% | – | – |
| COc1cc(CNC(=O)CSC2=C(C#N)C(c3cccs3)C(C(=O)Nc3ccccc3)=C(C)N2)cc(OC)c1OC (stereo not shown) [RI_18] | – | – | 44.1 % of control | 49.2 % of control |
| COc1ccc(C2C(C(=O)OCc3ccccc3)=C(C)NC3=C2C(=O)CCC3)cc1OC (stereo not shown) [ST013138, phenylmethyl 4-(3,4-dimethoxyphenyl)-2-methyl-5-oxo-1,4,6,7,8-pentahydroquinoline-3-carboxylate] | 56.8% | 69.7% | – | – |
| COC(=O)C1=C(C)NC2=C(C(=O)CC(c3ccc(OC)cc3)C2)C1c1cccc([N+](=O)[O-])c1 (stereo not shown) [ST013333, methyl 7-(4-methoxyphenyl)-2-methyl-4-(3-nitrophenyl)-5-oxo-1,4,6,7,8-pentahydroquinoline-3-carboxylate] | 51.6% | 48.4% | – | – |
| CCC(C)OC(=O)C1=C(C)NC2=C(C(=O)CC(c3ccc(Cl)cc3)C2)C1c1ccc(Cl)c(Cl)c1 (stereo not shown) [ST017095, methylpropyl 4-(3,4-dichlorophenyl)-7-(4-chlorophenyl)-2-methyl-5-oxo-1,4,6,7,8-pentahydroquinoline-3-carboxylate] | 37.1% | 61.3% | – | – |
| CC1=C(C(=O)OC2CCCC2)C(c2ccccc2Br)C2=C(CC(C)(C)CC2=O)N1 (stereo not shown) [ST013103, cyclopentyl 4-(2-bromophenyl)-2,7,7-trimethyl-5-oxo-1,4,6,7,8-pentahydroquinoline-3-carboxylate] | 68.2% | 0% | – | – |
| N#CC1=C(N)NC(SCC(N)=O)=C(C#N)C1c1ccccc1Br (stereo not shown) [RI_1] | – | – | 75.4 % of control | 93.2 % of control |
| CC(=O)C1=C(C)NC(SCC(=O)Nc2c(C)cc(Br)cc2Br)=C(C#N)C1c1cc(C)cs1 (stereo not shown) [ST048506, 2-[5-acetyl-3-cyano-6-methyl-4-(4-methyl(2-thienyl))(2-1,4-dihydropyridylthio)]-N-(2,4-dibromo-6-methylphenyl)acetamide] | – | – | 65.58 % of control | 91.16 % of control |

| Compound | activity at 5 µM [1] | activity at 5 µM [2] | Aβ1-42 (% of control) [1] | Aβ1-40 (% of control) [2] |
| --- | --- | --- | --- | --- |
| CCOc1cc(C2C(C(=O)OCc3ccccc3)=C(C)NC3=C2C(=O)CC(c2ccccc2)C3)ccc1O (stereo not shown) [ST017228, phenylmethyl 4-(3-ethoxy-4-hydroxyphenyl)-2-methyl-5-oxo-7-phenyl-1,4,6,7,8-pentahydroquinoline-3-carboxylate] | 60.2% | 95.6% | – | – |
| CC1=C(C(=O)OCCOc2ccccc2)C(c2ccc(C)s2)C2=C(CCCC2=O)N1 (stereo not shown) [ST052280, 2-phenoxyethyl 2-methyl-4-(5-methyl(2-thienyl))-5-oxo-1,4,6,7,8-pentahydroquinoline-3-carboxylate] | 37.7% | 73.6% | – | – |
| COC(=O)C1=CN(Cc2ccc(OC)c(OC)c2)C=C(C(=O)OC)C1c1cccs1 [ST038115, methyl 1-[(3,4-dimethoxyphenyl)methyl]-5-(methoxycarbonyl)-4-(2-thienyl)-1,4-d ihydropyridine-3-carboxylate] | – | – | 91 % of control | 42.45 % of control |
| CC1=C(C(=O)Nc2ccccc2)C(c2cccs2)C(C#N)=C(S)N1 (stereo not shown) [RI_28] | – | – | 68.5 % of control | 77.1 % of control |
| N#CC1=C(SCC(=O)Nc2ccc(Br)cc2)NC2=C(C(=O)CCC2)C1c1ccccc1Cl (stereo not shown) [ST050407, N-(4-bromophenyl)-2-[4-(2-chlorophenyl)-3-cyano-5-oxo(2-1,4,6,7,8-pentahydroquinolylthio)]acetamide] | 44.3% | 56.7% | – | – |
| CC1=C(C(=O)Nc2ccccc2)C(c2cccs2)C(C#N)=C(SCC(=O)Nc2ccc(F)cc2)N1 (stereo not shown) [RI_76] | – | – | 54.6 % of control | 46.2 % of control |
| COc1ccc(C2C(C(=O)OC(C)C)=C(C)NC3=C2C(=O)CC(c2ccccc2)C3)c(OC)c1 (stereo not shown) [ST017229, methylethyl 4-(2,4-dimethoxyphenyl)-2-methyl-5-oxo-7-phenyl-1,4,6,7,8-pentahydroquinoline-3-carboxylate] | 98.7% | 63.1% | – | – |
| CCCCNC(=O)CSC1=C(C#N)C(c2cccs2)C(C(=O)Nc2ccccc2)=C(C)N1 (stereo not shown) [RI_23] | – | – | 35.9 % of control | 49.3 % of control |
| CCOc1cc(C2C(C(=O)OCc3ccc(OC)cc3)=C(C)NC3=C2C(=O)CC(C)(C)C3)ccc1O (stereo not shown) [ST016964, (4-methoxyphenyl)methyl 4-(3-ethoxy-4-hydroxyphenyl)-2,7,7-trimethyl-5-oxo-1,4,6,7,8-pentahydroquinoline-3-carboxylate] | 40% | 36.4% | – | – |
| CCOC(=O)C1=C(C)NC2=C(C(=O)CC(c3ccc(OC)cc3)C2)C1c1cccc(Cl)c1 (stereo not shown) [ST017144, ethyl 4-(3-chlorophenyl)-7-(4-methoxyphenyl)-2-methyl-5-oxo-1,4,6,7,8-pentahydroquinoline-3-carboxylate] | 55.6% | 23.4% | – | – |
| CC1=C(C(=O)OCC(C)C)C(c2cccc3ccccc23)C2=C(CCCC2=O)N1 (stereo not shown) [ST052365, 2-methylpropyl 2-methyl-4-naphthyl-5-oxo-1,4,6,7,8-pentahydroquinoline-3-carboxylate] | 72.8% | 59.1% | – | – |
| CC1(C)CC(=O)C2=C(C1)N(c1ccc(Br)cc1F)C(N)=C(C#N)C2c1ccc(Cl)cc1Cl (stereo not shown) [ST052048, 2-amino-4-(2,4-dichlorophenyl)-1-(4-bromo-2-fluorophenyl)-7,7-dimethyl-5-oxo-1,4,6,7,8-pentahydroquinoline-3-carbonitrile] | 33% | 58.9% | – | – |
| COc1cc(C2C(C(=O)OCCOc3ccccc3)=C(C)NC3=C2C(=O)CC(C)(C)C3)ccc1OCc1ccccc1 (stereo not shown) [ST015071, 2-phenoxyethyl 4-[3-methoxy-4-(phenylmethoxy)phenyl]-2,7,7-trimethyl-5-oxo-1,4,6,7,8-pentahydroquinoline-3-carboxylate] | 88.3% | 60.8% | – | – |
| COC(=O)C1=CNC=C(C(=O)OC)C1c1cccc(OCc2ccccc2)c1 [ST052273, methyl 5-(methoxycarbonyl)-4-[3-(phenylmethoxy)phenyl]-1,4-dihydropyridine-3-carboxylate] | – | – | 57.92 % of control | 84.66 % of control |
| N#CC1=C(N)N(Cc2ccccc2)C2=C(COC/C2=C/c2cccnc2)C1c1cccnc1 (stereo not shown) [ST014245, 2-amino-1-benzyl-4-(3-pyridyl)-8-(3-pyridylmethylene)-1,4,7-trihydro-5H-pyrano[4,3-b]pyridine-3-carbonitrile] | – | – | 53.59 % of control | 75.44 % of control |
| CCOC(=O)C1=C(C)NC(C)=C(C(=O)OCC)C1c1c(Cl)cccc1Cl [ST211423, ethyl 4-(2,6-dichlorophenyl)-5-(ethoxycarbonyl)-2,6-dimethyl-1,4-dihydropyridine-3-carboxylate] | – | – | 0 % of control | 2.731 % of control |
